Test [1] has as its system D10. In words: qRT-PCR of D10 gene expression in rice roots after zaxinone treatment. It counts as in vivo, rice (Oryza sativa Nipponbare). Particulars: −Pi, 6 h. On the procedure: (§1) For the analysis of SL transcript levels in the zas mutant, one week-old seedlings were grown hydroponically in half-strength modified Hoagland nutrient solution with K2HPO4·2H2O (+Pi) and without K2HPO4·2H2O (−Pi) for 7 days. Seedlings were further treated with zaxinone for 6 h and tissues were collected.
(§2) Total RNA was extracted from the roots and shoots using a Qiagen Plant RNeasy Kit according to the manufacturer's instruction. cDNA was synthesized from 1 μg of total RNA using iScript cDNA Synthesis Kit (BIO-RAD Laboratories, Inc, 2000 Alfred Nobel Drive, Hercules, CA, Cat. No #170-8890) according to instructions in the user manual. For mycorrhizal samples, single-strand cDNA was synthesized from 1 μg of total RNA using Super-Script II (Invitrogen) according to instructions in the user manual. Primers used for real-time quantitative RT-PCR (qRT-PCR) analysis are listed below in Table 3. qRT-PCR was performed using SYBR Green Master Mix (Applied Biosystems; www.lifetechnologies.com) in a StepOnePlus (Life Technologies, Carlsbad, CA, USA). For mycorrhizal samples, qRT-PCR was performed using a Rotor-Gene Q 5plex HRM Platform (Qiagen). The 2-ΔCt method was used to calculate the relative gene expression levels and rice Ubiquitin (OsUBQ or OsRubQ1) gene was used as the internal control to normalize target gene expression.
14-day-old rice seedlings were transferred to new hydroponic pots containing fresh media with or without chemicals for 6 hours. SL biosynthetic (D27, D10, D17 and MAX1-Os900) gene expression were determined under −Pi conditions (phosphate deficient) with zaxinone (2.5 and 5 μM) treatment of both Nipponbare wild-type (WT) rice roots and zas mutant rice roots. The expression levels (1301) were detected by quantitative RT-PCR. Ubiquitin was used as a reference gene. Mock treatment (control) treatment consisted of 0.1% acetone. Bars (1302) show comparisons between the treatments and represent mean±SD (n=3). Decrease in SLs levels in the plants treated with zaxinone ranged from approximately 40% to 70%.
A general note: Quantitative PCR measures a nucleic acid by following its amplification.

The test system of test [2] is SL biosynthesis genes (D27, CCD7, CCD8 and CO). In words: qRT-PCR of transcript levels of SL biosynthesis genes (all four together) in rice roots. In kind it is in vivo. Particulars: for expression levels of D27, CCD7, CCD8 and CO: −Pi. As for the experimental part:
as §1, §2
Two week-old seedlings were grown for another one week in −Pi solution and then transferred to new vials containing fresh −Pi solution with and without the indicated concentrations (2.5 μM, 5 μM, 10 μM and 20 μM) of zaxinone for 6 h and samples were collected. SL biosynthetic genes expression for D27 (FIG. 19A), CCD7 […], CCD8 (FIG. 19C), and CO (Carlactone oxidase-FIG. 19D) in WT and zas mutants. […] The expression levels were detected by quantitative RT-PCR. Ubiquitin was used as a reference gene and the expression levels in the WT-mock were normalized to 1. Bars represent mean±SD (n=3). Different letters above each bar denote significant difference following a One-way ANOVA test (P<0.05).
Transcript levels of SL biosynthesis genes, D27 (FIG. 24C), CCD7/D17 (FIG. 24D), CCD8/D10 (FIG. 24E) and OsCO (Carlactone oxidase—FIG. 24F) in root tissues were collected for SL quantification. The expression levels were detected by qRT-PCR. Ubiquitin was used as a reference gene and the expression levels in the WT-mock were normalized to 1. Two week-old seedlings were grown for another one week in −Pi solution and then transferred to new vials containing fresh −Pi solution with and without 5 μM of zaxinone and GR24 for 6 h and samples were collected. Bars represent mean±SD (n=3). Different letters above each bar denote significant difference following a One-way ANOVA test (P<0.05).

In test [3] the test system is Zaxinone Synthase (ZAS). In words: qRT-PCR of ZAS transcript levels in rice after zaxinone or GR24. In kind it is in vivo, rice (Nipponbare). Particulars: phosphate starvation, 5 μM, 6 h. On the procedure:
as §2
FIGS. 14A-14C show transcript levels of Zaxinone Synthase (ZAS) in wild type roots and shoots. In FIG. 14A, the relative expression levels of ZAS under normal (+Pi) and phosphate-starved (−Pi) conditions in Nipponbare wild-type (WT) roots and shoots is seen. The expression levels in the WT root were normalized to 1. In FIG. 14B, the relative expression levels of ZAS under −Pi conditions with 5 μM of Zaxinone and GR24 treatment in WT rice root and shoot is seen. Three weeks-old seedlings were transferred to new hydroponic pots containing fresh media with or without chemicals for 6 h. The expression levels in the WT-mock were normalized to 1 and the expression levels were detected by qRT-PCR. Ubiquitin was used as a reference gene. Bars represent mean±SD (n=3). Mock treatment (0.1% acetone). Different letters above each bar denote significant difference following a One-way ANOVA test (P<0.05).

Each structure is given as a SMILES string.

`CC(=O)/C=C/C=C(C)/C=C/C1=C(C)C[C@@H](O)CC1(C)C` [zaxinone, 3-OH-β-apo-13-carotenone]: the “decrease of D10 relative expression vs mock” value in test [1] (WT rice roots, 2.5 μM zaxinone) was “approximately 75%”; in test [1] (WT rice roots, 5.0 μM zaxinone), approximately 70%; in test [1] (zas mutant rice roots, 2.5 μM zaxinone), “approximately 60%”; in test [1] (zas mutant rice roots, 5.0 μM zaxinone) it was approximately 68%. Also, the D10 relative expression result in test [1] (WT rice roots, 2.5 μM zaxinone, WT mock approx. 1.0) is listed as “approximately 0.25”; in test [1] (WT rice roots, 5.0 μM zaxinone, WT mock approx. 1.0), “approximately 0.3”; in test [1] (zas mutant rice roots, 2.5 μM zaxinone, zas mock approx. 2.5), “approximately 1.0”; in test [1] (zas mutant rice roots, 5.0 μM zaxinone, zas mock approx. 2.5), “approximately 0.8”. For the same compound, in test [2] (Shiokari wild-type and d3 seedlings, phosphate-starved, 5 μM, 6 h), the “SL transcript levels in roots” value was “decreased”. Moreover, the “transcript levels of D27, CCD7, CCD8 and CO” value is on record as “nor was there a pronounced effect” in test [2] (WT and zas root tissues, normal phosphorus (+Pi), zaxinone 6 h); “decreased the transcript levels” in test [2] (zas mutant and wild-type seedlings, phosphate starvation, 5 μM zaxinone). Further, the “expression levels of D27, CCD7, CCD8 and CO” value in test [2] (wild-type roots, 2.5-20 μM zaxinone, 6 h) was “decreased the expression levels of the wild-type to levels below the WT/Mock control level”; in test [2] (zas mutant roots, increased concentrations (5, 10, 20 μM) vs 2.5 μM, 6 h), “Only slight decreases”; in test [2] (zas mutant roots, lowest level of zaxinone (2.5 μM), 6 h), “reduced the expression levels to near the WT/Mock level”. Moreover, the “relative expression of transcript levels of D27, CCD7, CCD8 and CO” value in test [2] (zaxinone treated zas mutants (zas/Zax), phosphate starvation, 5 μM) is reported as “at or near levels for the wild-type controls”. Besides, in test [3] (WT rice root tissues), the “effect on ZAS transcript levels compared between zaxinone and GR24” value is listed as “more pronounced effect”. Moreover, in test [3] (WT rice), the “ZAS transcript levels in root tissues” value is given as “negatively impacted”.

(Values after patent US11839210B1, “Plant growth promoter with strigolactones regulation activities” (King Abdullah University of Science and Technology, priority 2017, dated 2023).)
